Measured values reported in ChEMBL document CHEMBL1201862, “PubChem BioAssay data set” (2004).
Active and inactive are the calls of the source.

Legend:
Cytochrome P450 2C19 = Cytochrome P450 2C19 (Homo sapiens, UniProt P33261); assay: qHTS Assay for Inhibitors and Substrates of Cytochrome P450 2C19. [Related pubchem assays: 410 ]; format: ADME; conditions: read-out: Potency
Cytochrome P450 2C9 = Cytochrome P450 2C9 (Homo sapiens, UniProt P11712); conditions: Potency
Cytochrome P450 3A4 = Cytochrome P450 3A4 (Homo sapiens, UniProt P08684); conditions: Potency;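 further: confirmatory qHTS run detecting inhibitors and substrates of CYP3A4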
Cytochrome P450 3A4, sequence (P08684 whole entry): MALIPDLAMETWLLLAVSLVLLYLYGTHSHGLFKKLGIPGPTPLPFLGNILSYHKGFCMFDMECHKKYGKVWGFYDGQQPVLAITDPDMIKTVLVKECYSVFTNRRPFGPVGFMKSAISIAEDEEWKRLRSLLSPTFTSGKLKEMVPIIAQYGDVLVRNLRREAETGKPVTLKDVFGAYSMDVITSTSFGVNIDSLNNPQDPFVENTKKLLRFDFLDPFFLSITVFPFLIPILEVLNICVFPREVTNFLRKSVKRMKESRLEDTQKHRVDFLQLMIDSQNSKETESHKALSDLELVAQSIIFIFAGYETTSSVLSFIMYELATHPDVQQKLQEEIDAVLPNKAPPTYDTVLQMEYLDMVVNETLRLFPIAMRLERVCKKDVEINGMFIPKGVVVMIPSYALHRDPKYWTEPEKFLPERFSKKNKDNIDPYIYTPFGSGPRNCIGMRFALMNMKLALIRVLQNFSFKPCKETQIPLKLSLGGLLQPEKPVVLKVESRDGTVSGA

Cytochrome P450 2D6 = Cytochrome P450 2D6 (Homo sapiens, UniProt P10635); assay: qHTS Assay for Inhibitors and Substrates of Cytochrome P450 2D6. [Related pubchem assays: 410 ]; format: ADME; conditions: read-out: Potency
Cytochrome P450 2D6, sequence (P10635 whole entry): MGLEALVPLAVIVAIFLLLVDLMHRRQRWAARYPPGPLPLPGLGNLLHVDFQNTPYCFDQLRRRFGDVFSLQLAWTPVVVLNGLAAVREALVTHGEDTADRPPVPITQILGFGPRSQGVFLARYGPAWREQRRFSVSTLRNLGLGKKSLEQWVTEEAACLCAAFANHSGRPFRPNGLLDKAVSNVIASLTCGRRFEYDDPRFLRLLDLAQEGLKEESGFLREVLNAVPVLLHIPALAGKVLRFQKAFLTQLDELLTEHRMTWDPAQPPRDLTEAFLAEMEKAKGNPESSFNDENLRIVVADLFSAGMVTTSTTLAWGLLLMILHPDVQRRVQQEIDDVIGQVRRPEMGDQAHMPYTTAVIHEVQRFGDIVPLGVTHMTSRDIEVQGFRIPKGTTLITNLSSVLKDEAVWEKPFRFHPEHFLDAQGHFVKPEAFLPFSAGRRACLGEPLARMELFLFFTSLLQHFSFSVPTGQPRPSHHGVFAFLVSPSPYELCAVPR

Hexokinase HKDC1 = target: T1, Hexokinase HKDC1 (Homo sapiens, UniProt Q2TB90); assay: inhibition of HKDC1 glucose phosphorylation – biochemical, W721R variant, dose response (AID 504729); format: functional
T1 sequence (Q2TB90 whole entry): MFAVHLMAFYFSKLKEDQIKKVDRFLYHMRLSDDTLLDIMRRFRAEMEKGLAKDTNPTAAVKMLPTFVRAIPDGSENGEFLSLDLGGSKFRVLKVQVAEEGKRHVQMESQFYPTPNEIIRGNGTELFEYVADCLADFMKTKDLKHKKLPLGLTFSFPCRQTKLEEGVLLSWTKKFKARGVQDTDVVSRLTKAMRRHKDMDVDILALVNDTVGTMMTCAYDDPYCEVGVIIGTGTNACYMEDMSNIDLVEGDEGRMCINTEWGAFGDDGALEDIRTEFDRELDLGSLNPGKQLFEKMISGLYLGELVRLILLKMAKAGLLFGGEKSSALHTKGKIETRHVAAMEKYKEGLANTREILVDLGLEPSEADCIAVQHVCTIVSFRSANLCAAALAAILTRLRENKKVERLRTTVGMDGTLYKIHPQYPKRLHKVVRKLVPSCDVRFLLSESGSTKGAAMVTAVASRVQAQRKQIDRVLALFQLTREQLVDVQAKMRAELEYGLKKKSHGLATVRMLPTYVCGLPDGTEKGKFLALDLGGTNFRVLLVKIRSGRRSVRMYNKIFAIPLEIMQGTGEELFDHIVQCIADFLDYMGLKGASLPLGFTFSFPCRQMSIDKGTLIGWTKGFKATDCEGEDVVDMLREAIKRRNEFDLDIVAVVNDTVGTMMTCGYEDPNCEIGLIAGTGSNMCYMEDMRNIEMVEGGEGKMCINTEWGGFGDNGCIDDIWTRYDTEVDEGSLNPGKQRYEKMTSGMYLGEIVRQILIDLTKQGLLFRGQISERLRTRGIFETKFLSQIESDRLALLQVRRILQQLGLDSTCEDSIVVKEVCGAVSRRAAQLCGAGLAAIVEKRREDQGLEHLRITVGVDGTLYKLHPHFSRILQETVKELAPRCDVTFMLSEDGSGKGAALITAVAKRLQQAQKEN

[1] = alpha-synuclein stem-loop luciferase translation blockers – H4 neuroglioma cells, luminescence, confirmation (AID 1988); format: functional, cell-based
INS1 = assay: INS-1E survival protection against cytokine death – cell-based, luminescence, retest, dose response (AID 449756); format: functional; conditions: Rattus norvegicus;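 further: cell death triggered by IL-1 beta plus TNF-alpha plus IFN-gamma mixture; protective hits raise ATP signal compared with cytokine alone wells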
[2] = Luminescence Cell-Based Dose Response HTS to Identify Inhibitors of 5'UTR Stem-Loop Driven Prion Protein mRNA Translation in H4 Neuroglioblastoma Cells. [Related pubchem assays: 1827 (Project Summary), 1813 (Primary HTS)]; format: functional
[3] = luciferase reporter signal suppression in cells – H4 neuroglioma cells, luminescence, dose response (AID 1990); format: functional, cell-based
[4] = target: Scavenger receptor class B member 1 (Mus musculus, UniProt Q61009); assay: mouse SR-BI DiI-HDL uptake blockers – ldlA[mSR-BI] cells, fluorescence, cherry pick, dose response (AID 493194); format: functional, cell-based;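 further: cellular uptake of fluorescent DiI-labeled HDL measured as cell fluorescence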
Scavenger receptor class B member 1, sequence (Q61009 whole entry): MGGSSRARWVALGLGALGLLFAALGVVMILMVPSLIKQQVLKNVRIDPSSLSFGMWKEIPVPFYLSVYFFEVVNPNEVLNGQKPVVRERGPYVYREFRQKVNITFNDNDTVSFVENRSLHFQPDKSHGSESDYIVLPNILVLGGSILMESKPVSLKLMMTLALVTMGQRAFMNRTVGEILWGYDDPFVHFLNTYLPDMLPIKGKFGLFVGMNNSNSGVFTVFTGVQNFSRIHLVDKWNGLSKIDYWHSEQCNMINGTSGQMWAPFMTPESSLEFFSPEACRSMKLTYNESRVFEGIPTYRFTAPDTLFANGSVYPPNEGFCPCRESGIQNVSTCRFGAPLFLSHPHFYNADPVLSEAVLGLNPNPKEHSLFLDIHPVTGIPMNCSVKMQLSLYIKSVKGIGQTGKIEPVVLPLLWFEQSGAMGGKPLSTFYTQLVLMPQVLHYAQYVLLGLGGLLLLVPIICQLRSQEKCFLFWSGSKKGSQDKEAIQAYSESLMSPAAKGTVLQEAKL

[5] = target: Serine/threonine-protein phosphatase PP1-alpha catalytic subunit (Homo sapiens, UniProt P62136); assay: inhibition of protein phosphatase 1 activity – biochemical, fluorescence, dose response (AID 2403);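 further: phosphatase turnover of OMFP into fluorescent 3-O-methylfluorescein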
Serine/threonine-protein phosphatase PP1-alpha catalytic subunit, sequence (P62136 whole entry): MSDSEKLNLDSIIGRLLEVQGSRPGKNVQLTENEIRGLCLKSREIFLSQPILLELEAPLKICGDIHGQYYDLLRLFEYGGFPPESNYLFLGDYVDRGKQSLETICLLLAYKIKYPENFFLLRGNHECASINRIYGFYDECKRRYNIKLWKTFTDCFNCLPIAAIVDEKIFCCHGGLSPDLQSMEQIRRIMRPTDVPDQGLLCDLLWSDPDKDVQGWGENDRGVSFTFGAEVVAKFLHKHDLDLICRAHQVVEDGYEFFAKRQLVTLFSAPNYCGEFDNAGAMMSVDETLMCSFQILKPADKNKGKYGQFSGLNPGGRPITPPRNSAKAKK

Vero = assay: cells; format: functional; conditions: Chlorocebus sabaeus
[6] = target: Serine/threonine-protein phosphatase (Homo sapiens, UniProt Q9BPW0); assay: Counterscreen for inhibitors of PP1: fluorescence-based biochemical high throughput dose response assay to identify inhibitors of Protein Phosphatase 5 (PP5). [Related pubchem assays: 2034 (Summary (PP5 inhibitors)), 1987 (PP5 inhibitors in singlate), 2235 (PP1 inhibitors in singlate)]
Serine/threonine-protein phosphatase, sequence (Q9BPW0 whole entry): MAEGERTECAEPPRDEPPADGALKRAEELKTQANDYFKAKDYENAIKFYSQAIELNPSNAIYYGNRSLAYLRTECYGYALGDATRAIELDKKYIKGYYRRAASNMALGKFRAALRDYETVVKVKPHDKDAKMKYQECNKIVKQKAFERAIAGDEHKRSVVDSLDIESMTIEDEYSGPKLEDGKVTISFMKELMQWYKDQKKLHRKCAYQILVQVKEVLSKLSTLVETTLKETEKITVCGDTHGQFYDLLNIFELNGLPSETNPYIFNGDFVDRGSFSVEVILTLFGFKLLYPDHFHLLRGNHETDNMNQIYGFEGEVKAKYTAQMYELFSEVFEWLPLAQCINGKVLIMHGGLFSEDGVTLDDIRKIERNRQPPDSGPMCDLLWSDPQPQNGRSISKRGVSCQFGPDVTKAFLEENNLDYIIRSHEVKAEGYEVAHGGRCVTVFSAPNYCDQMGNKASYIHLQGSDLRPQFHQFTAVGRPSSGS

[7] = Vero E6 cell cytotoxicity, dose response, cytotoxicity control for non-replicating M. tuberculosis project, secondary assay (AID 492998); format: functional, VeroE6; conditions: Vero C1008
cells = format: functional
[8] = target: T2, Microphthalmia-associated transcription factor (Homo sapiens, UniProt O75030); assay: reducers of TRPM1 reporter luminescence, concentration series – cell-based, SK-MEL-5, cherry-picked, set 3, MITF inhibitor project, dose response (AID 493073); format: functional;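 further: SK-MEL-5 melanoma cells with luciferase driven by the MITF target TRPM1 promoter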
T2 sequence (O75030 whole entry): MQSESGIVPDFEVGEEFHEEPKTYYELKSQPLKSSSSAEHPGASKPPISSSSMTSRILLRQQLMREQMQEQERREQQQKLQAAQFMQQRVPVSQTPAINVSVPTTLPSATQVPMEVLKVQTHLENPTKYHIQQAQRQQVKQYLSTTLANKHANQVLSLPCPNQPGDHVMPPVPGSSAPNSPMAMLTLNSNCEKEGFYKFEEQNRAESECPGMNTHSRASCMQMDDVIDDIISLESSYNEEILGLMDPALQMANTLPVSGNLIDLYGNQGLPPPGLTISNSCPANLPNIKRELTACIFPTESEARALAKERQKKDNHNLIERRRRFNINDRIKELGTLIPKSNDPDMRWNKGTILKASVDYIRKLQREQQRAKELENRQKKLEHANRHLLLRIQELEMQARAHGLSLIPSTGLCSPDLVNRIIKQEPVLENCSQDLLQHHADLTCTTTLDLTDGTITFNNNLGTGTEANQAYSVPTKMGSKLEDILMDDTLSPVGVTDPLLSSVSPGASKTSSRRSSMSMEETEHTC

Streptococcus = assay: GAS UMAA2166 growth inhibition – luminescence, BacTiterGlo, counter-screen for streptokinase expression inhibitor project, dose response (AID 1915); format: functional, organism-based;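 further: potency for reduction of bacterial viability or growth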
[9] = test system: Streptococcus sp. 'group A'; assay: Streptococcus pyogenes SK(-)GAS viability under kanamycin – luminescence, BacTiterGlo, confirmation, counter-screen for streptokinase expression inhibitor project, dose response (AID 1900); format: functional, organism-based
Streptokinase A = target: T3, Streptokinase A (Streptococcus pyogenes serotype M1, UniProt P10520); assay: viability-normalized secreted streptokinase activity reduction – plasminogen activation absorbance, OD405, dose response (AID 1914); format: functional, Streptococcus pyogenes M1 GAS;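 further: secreted streptokinase activity via plasminogen activation per viability signal from cell pellet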
T3 sequence (P10520 whole entry): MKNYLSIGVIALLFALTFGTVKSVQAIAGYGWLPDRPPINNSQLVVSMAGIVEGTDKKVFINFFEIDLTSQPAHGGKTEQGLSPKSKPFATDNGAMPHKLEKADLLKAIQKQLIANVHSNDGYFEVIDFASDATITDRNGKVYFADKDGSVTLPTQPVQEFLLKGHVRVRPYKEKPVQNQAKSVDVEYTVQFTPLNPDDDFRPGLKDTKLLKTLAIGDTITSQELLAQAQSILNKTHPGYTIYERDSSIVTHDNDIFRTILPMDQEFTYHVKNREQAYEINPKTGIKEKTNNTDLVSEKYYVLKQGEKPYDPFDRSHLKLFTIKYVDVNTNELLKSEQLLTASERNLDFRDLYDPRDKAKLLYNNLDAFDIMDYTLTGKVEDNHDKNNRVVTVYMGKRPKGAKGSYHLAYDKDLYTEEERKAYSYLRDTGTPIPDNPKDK

[10] = THP-1 cell cytotoxicity, dose response, cytotoxicity control for non-replicating M. tuberculosis project (AID 489025); format: functional
ORF 73 = target: T4, ORF 73 (Human herpesvirus 8, UniProt O40947); assay: KSHV LANA DNA-binding disruption – biochemical, fluorescence polarization, cherry-picked samples, dose response (AID 504725); set-up: species or system Human gammaherpesvirus 8;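 further: fluorescence polarization of a labeled DNA duplex reporting LANA DNA binding; potency is for inhibitors that block LANA binding to the DNA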
T4 sequence (O40947 whole entry): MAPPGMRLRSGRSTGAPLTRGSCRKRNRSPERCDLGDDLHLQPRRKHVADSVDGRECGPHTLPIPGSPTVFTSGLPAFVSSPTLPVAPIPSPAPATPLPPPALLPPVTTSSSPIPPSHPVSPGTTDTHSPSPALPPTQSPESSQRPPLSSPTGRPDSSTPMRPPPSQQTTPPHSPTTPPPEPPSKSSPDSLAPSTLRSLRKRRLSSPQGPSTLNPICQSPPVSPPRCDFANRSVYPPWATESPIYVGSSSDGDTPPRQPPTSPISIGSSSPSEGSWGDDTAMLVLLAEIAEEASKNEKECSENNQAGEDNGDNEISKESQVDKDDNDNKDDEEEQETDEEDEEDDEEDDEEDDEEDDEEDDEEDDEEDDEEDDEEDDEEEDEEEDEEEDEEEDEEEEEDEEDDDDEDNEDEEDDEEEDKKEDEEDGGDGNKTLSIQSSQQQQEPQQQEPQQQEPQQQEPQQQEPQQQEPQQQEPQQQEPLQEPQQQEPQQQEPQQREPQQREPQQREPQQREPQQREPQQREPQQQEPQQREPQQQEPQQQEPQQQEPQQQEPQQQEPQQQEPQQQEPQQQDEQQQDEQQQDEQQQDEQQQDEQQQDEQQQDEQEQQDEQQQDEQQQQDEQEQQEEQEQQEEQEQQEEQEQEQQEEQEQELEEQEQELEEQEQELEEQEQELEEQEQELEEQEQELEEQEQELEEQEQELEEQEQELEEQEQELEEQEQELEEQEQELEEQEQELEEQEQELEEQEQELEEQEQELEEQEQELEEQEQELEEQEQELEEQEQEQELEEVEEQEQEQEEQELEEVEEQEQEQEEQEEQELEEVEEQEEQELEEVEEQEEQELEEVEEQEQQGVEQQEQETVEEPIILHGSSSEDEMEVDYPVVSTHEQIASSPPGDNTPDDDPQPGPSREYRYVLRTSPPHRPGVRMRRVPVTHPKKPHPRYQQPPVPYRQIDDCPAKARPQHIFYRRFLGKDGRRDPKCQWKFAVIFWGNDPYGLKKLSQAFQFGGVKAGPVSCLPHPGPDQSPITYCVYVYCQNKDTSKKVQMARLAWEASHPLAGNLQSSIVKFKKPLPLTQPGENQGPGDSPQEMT

HeLa = assay: viability loss in HeLa cells – cell-based, 24 h, cherry-picked samples, cytotoxicity control, dose response (AID 504726); format: functional; conditions: Homo sapiens;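 further: potency for cytotoxicity as loss of luminescence signal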
[11] = target: Histone-lysine N-methyltransferase NSD2 (Homo sapiens, UniProt O96028); format: biochemical
Histone-lysine N-methyltransferase NSD2, sequence (O96028 whole entry): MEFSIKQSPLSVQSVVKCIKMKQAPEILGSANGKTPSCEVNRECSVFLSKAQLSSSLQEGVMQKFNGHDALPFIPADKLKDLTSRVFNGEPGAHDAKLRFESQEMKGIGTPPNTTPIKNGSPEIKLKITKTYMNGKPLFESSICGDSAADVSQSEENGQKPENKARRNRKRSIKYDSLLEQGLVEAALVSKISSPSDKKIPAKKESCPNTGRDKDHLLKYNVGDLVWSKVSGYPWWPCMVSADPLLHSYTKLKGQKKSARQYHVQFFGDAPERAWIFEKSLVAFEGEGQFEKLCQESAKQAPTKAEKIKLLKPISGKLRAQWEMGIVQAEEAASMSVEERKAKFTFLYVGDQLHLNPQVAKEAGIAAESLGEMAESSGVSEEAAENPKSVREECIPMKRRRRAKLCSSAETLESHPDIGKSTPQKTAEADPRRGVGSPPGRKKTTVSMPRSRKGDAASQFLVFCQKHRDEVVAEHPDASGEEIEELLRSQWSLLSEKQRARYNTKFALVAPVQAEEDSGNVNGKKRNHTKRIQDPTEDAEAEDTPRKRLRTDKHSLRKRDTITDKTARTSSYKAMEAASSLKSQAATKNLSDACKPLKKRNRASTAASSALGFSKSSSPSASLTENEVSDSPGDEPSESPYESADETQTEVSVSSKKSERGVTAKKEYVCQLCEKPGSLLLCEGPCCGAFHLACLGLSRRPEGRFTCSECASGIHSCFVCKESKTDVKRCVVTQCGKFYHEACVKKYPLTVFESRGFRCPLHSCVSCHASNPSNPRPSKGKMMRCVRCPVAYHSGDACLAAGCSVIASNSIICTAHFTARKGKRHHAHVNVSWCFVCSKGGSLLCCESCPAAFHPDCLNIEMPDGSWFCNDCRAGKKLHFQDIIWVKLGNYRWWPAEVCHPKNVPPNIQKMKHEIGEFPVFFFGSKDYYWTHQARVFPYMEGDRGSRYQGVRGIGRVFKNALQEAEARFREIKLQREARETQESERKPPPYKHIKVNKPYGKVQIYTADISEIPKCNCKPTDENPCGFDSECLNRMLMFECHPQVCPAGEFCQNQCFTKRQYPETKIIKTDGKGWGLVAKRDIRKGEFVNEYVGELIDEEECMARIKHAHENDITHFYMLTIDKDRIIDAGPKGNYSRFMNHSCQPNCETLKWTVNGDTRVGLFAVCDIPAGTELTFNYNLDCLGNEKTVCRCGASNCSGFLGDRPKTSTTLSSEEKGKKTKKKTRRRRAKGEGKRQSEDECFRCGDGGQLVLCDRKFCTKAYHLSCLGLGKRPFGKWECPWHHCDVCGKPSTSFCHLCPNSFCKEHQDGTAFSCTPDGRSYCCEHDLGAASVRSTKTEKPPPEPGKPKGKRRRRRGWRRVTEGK

Cytochrome P450 2C19, sequence (P33261 whole entry): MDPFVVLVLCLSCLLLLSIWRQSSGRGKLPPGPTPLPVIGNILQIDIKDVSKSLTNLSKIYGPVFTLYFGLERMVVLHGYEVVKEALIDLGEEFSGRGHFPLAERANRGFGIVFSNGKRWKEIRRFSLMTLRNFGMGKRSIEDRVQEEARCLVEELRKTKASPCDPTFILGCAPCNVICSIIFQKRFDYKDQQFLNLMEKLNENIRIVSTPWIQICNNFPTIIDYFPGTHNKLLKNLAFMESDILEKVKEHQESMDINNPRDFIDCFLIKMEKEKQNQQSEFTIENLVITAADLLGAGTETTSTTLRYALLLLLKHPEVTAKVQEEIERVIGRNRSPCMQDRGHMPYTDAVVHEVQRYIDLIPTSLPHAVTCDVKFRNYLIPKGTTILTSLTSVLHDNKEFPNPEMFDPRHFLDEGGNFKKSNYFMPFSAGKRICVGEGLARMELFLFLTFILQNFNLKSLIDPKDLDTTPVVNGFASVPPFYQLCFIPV
Cytochrome P450 2C9, sequence (P11712 whole entry): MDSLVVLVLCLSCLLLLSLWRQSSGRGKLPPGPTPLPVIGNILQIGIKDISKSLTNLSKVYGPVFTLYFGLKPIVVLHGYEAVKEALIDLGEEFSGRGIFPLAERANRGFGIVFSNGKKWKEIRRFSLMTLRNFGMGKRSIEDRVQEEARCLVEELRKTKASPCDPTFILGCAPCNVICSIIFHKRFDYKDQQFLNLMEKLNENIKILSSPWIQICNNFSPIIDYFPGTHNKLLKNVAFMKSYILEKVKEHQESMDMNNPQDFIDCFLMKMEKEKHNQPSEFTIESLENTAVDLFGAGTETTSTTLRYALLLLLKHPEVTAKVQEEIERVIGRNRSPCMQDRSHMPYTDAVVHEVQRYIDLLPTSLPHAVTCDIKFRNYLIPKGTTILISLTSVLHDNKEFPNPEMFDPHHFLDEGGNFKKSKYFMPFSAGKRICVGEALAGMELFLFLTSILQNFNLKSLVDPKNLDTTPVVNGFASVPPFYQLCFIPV

Compound: COC(=O)NC(/C(C(=O)OC)=C(\C)NCc1ccccc1)c1cccs1 (centres undefined)
- AC50 (Cytochrome P450 2C19): 0.0316 µM (inconclusive)
- AC50 (Cytochrome P450 2C9): 7.94 µM (inconclusive)
- AC50 (Cytochrome P450 3A4): 3.98 µM (inconclusive)
- AC50 (Cytochrome P450 2D6): 3.98 µM (inconclusive)

Compound: CCOC(=O)c1ccc(NC(=O)CSc2ccc(-c3ccccn3)nn2)cc1
- IC50 (Hexokinase HKDC1): 2.31 µM (active)

Compound: O=C(Nc1cccc(NC(=O)c2cc([N+](=O)[O-])ccc2Cl)n1)c1cc([N+](=O)[O-])ccc1Cl
- EC50 [1]: 8.35 µM (active)
- AC50 (INS1): 6.4 µM (active)
- EC50 [2]: > 60 µM (not active)
- EC50 [3]: 15.3 µM (active)
- AC50 [4]: 20.2 µM (active)

Compound: COc1ccc(/C=N/Nc2cc(C)nc(-n3nc(C)cc3C)n2)c(OC)c1
- IC50 [5]: 6.68 µM (active)
- CC50 (Vero): 19.8 µM (active)
- IC50 [6]: > 67 µM (not active)
- AC50 (INS1): 2.67 µM (active)
- CC50 [7]: 7.06 µM (active)
- IC50 (cells): 0.24 µM (active)
- AC50 [8]: 10.4 µM (active)
- EC50 (Streptococcus): 13.8 µM (active)
- EC50 [9]: 9.67 µM (active)
- EC50 (Streptokinase A): > 150 µM (not active)
- CC50 [10]: 5.91 µM (active)

Compound: CC(=O)OCC1OC(C#Cc2ccc(C)cc2C)C=CC1OC(C)=O (centres undefined)
- AC50 (Cytochrome P450 2C19): 1.58 µM (inconclusive)
- AC50 (Cytochrome P450 2C9): 2.51 µM (inconclusive)

Compound: COc1ccc(-c2coc3cc(O)ccc3c2=O)cc1 [FORMONONETIN]
- AC50 (Cytochrome P450 2C19): 7.94 µM (inconclusive)
- AC50 (Cytochrome P450 2D6): 10 µM (inconclusive)

Compound: O=C1CCCC(=O)C1=NNc1ccc(C(=O)O)cc1
- AC50 (ORF 73): 30.2 µM (active)
- AC50 (HeLa): > 350 µM (inactive)
- AC50 [11]: 10.3 µM (active)

Compound: O=C(c1cn(-c2ccccc2)nc1-c1cccc([N+](=O)[O-])c1)N1CCCCC1
- AC50 [4]: 23.6 µM (active)
